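Cultured in 96-well plates, cells were exposed to test compound for 48 hours across five concentrations. GI50 is the concentration that inhibits growth by half.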 Calls of active or inactive are those of the source. Rule as the data show it: active = GI50 up to about 1.1 µM and inactive = higher.

One may read the GI50 as the concentration that inhibits growth by half.

Test systems include 786-0; A498; ACHN; BT-549; COLO 205; DU-145; HT-29; Hs-578T; MDA-MB-231; MDA-MB-435; NCI/ADR-RES; OVCAR-4; PC-3; SF-539; SK-MEL-28; SK-MEL-2; SK-MEL-5; SR; SW-620; MOLT-4.
Common to all, as to experiment: DTP human tumour cell line panel, 48 h

As to `O=C(SCc1cccc2ccccc12)c1ccc(Cl)cc1`, the GI50 was > 100 µM (inactive) in the assay on 786-0; > 100 µM (inactive) in the assay on A498; > 100 µM (inactive) with ACHN; > 100 µM (inactive) in the assay on BT-549; 82.2 µM (inactive) in the assay on COLO 205; > 100 µM (inactive) with DU-145. For the same compound, the GI50 in the assay with HT-29 is 54.2 µM (inactive); in the assay with Hs-578T, 79.3 µM (inactive); in the assay with MDA-MB-231 it was > 100 µM (inactive); in the assay on MDA-MB-435 it was 97.1 µM (inactive); in the assay with NCI/ADR-RES, > 100 µM (inactive); in the assay with OVCAR-4 it was > 100 µM (inactive). Further, the GI50 with PC-3 was > 100 µM (inactive); in the assay with SF-539, > 100 µM (inactive); in the assay with SK-MEL-28 it was > 100 µM (inactive); with SK-MEL-2 it was > 100 µM (inactive); with SK-MEL-5, 45.2 µM (inactive); in the assay on SR, 39.3 µM (inactive). Also, in the assay with SW-620, the GI50 is > 100 µM (inactive).
For the compound `Nc1nc(-c2cc(-c3cccc4ccccc34)nc(N)n2)cc(-c2cccc3ccccc23)n1`, the GI50 in the assay on 786-0, in the assay on A498, in the assay on ACHN, in the assay on BT-549, in the assay with COLO 205 and with DU-145 was > 100 µM (inactive) in each case. Also, the GI50 in the assay with HT-29, in the assay on Hs-578T, in the assay on MDA-MB-231, in the assay on MDA-MB-435, with MOLT-4 and in the assay on NCI/ADR-RES was > 100 µM (inactive) in each case. For the same compound, the GI50 in the assay with OVCAR-4, in the assay on PC-3, in the assay with SF-539, in the assay with SK-MEL-28, with SK-MEL-2 and in the assay with SK-MEL-5 was > 100 µM (inactive) throughout. The GI50 with SR and in the assay with SW-620 was > 100 µM (inactive) each time.
For `COc1cc2c(C)cc(O)cc2c2cc(O)c(C)cc12`, the GI50 was 8.43 µM (inactive) in the assay on 786-0; 11.2 µM (inactive) with A498; 12.4 µM (inactive) in the assay on ACHN; 12.7 µM (inactive) with BT-549; 9.91 µM (inactive) with COLO 205; 10.9 µM (inactive) with DU-145. In addition, the GI50 in the assay with HT-29 was 14.7 µM (inactive); in the assay with Hs-578T, 19.1 µM (inactive); in the assay with MDA-MB-231, 9.66 µM (inactive); in the assay with MDA-MB-435, 9.75 µM (inactive); in the assay on MOLT-4, 5.83 µM (inactive); in the assay on NCI/ADR-RES it was 13.5 µM (inactive). Also, the GI50 was 11.3 µM (inactive) in the assay with OVCAR-4; 9.57 µM (inactive) with PC-3; 9.14 µM (inactive) in the assay on SF-539; 14.8 µM (inactive) with SK-MEL-2; 10.5 µM (inactive) in the assay on SK-MEL-5; 1.53 µM (inactive) with SR. In addition, the GI50 with SW-620 is 10.2 µM (inactive).
For the compound `O=C(O)CN1CCN2CCOCCN(CC1)CCN(CC(=O)O)CC2`, the GI50 in the assay on 786-0, with A498, with ACHN, in the assay on BT-549, in the assay with COLO 205 and in the assay on DU-145 was > 100 µM (inactive) in each case. The GI50 with HT-29, in the assay with Hs-578T, in the assay on MDA-MB-231, in the assay on MDA-MB-435, with MOLT-4 and in the assay with NCI/ADR-RES was > 100 µM (inactive) throughout. In addition, the GI50 in the assay with OVCAR-4, with PC-3, in the assay on SF-539, in the assay with SK-MEL-28, in the assay on SK-MEL-2 and in the assay with SK-MEL-5 was > 100 µM (inactive) throughout. The GI50 with SR and in the assay on SW-620 was > 100 µM (inactive) throughout.
Turning to `N=C(N)NC(=N)Nc1c(F)c(F)c(F)c(F)c1F`, the GI50 in the assay with 786-0 was > 100 µM (inactive); in the assay with A498, > 100 µM (inactive); in the assay with ACHN, > 100 µM (inactive); in the assay on BT-549, 92.3 µM (inactive); in the assay with COLO 205, 54 µM (inactive); with DU-145 it was > 100 µM (inactive). Also, the GI50 is 96.8 µM (inactive) in the assay on HT-29; 95.3 µM (inactive) in the assay with Hs-578T; 62.2 µM (inactive) in the assay on MDA-MB-231; > 100 µM (inactive) in the assay on MDA-MB-435; > 100 µM (inactive) with NCI/ADR-RES; > 100 µM (inactive) in the assay on OVCAR-4. Besides, the GI50 was 97.9 µM (inactive) in the assay on PC-3; > 100 µM (inactive) in the assay on SF-539; > 100 µM (inactive) in the assay on SK-MEL-28; > 100 µM (inactive) in the assay with SK-MEL-2; 44.8 µM (inactive) in the assay with SK-MEL-5; 17.3 µM (inactive) in the assay with SR. Besides, the GI50 in the assay on SW-620 was > 100 µM (inactive).
As to `CC[C@@]1(O)C(=O)OCc2c1cc1n(c2=O)Cc2c-1nc1ccccc1c2/C=N\NC(=O)C(C)N` (stereo partly specified), the GI50 in the assay with 786-0 is 0.069 µM (active); in the assay with A498 it was 0.111 µM (active); with ACHN, < 0.0216 µM (active); with BT-549 it was 0.303 µM (active); with COLO 205, 7.11 µM (inactive); with DU-145, 0.0401 µM (active). Besides, the GI50 is 1.63 µM (inactive) in the assay on HT-29; 11.9 µM (inactive) with Hs-578T; 27 µM (inactive) in the assay on MDA-MB-231; 1.61 µM (inactive) in the assay with MDA-MB-435; < 0.0158 µM (active) in the assay with MOLT-4; 0.241 µM (active) in the assay on NCI/ADR-RES. In addition, the GI50 in the assay on OVCAR-4 was 7.1 µM (inactive); with PC-3 it was 1.91 µM (inactive); in the assay with SF-539, < 0.0116 µM (active); with SK-MEL-28 it was 17.8 µM (inactive); in the assay on SK-MEL-2 it was 13.1 µM (inactive); in the assay with SK-MEL-5 it was 0.238 µM (active). Also, the GI50 with SR was < 0.01 µM (active); in the assay with SW-620, 1.37 µM (inactive).
As for `Nc1nc(N)c(N=O)c(Nc2ccc(O)cc2)n1`, the GI50 in the assay with 786-0 was > 55.7 µM (inactive); in the assay on A498, > 55.8 µM (inactive); in the assay with ACHN it was 46.2 µM (inactive); in the assay on BT-549, > 40.4 µM (inactive); in the assay with COLO 205, 57.5 µM (inactive); in the assay on DU-145 it was 34.6 µM (inactive). Moreover, the GI50 in the assay on HT-29 is 18 µM (inactive); in the assay on Hs-578T, 13.7 µM (inactive); in the assay on MDA-MB-231, > 58.3 µM (inactive); in the assay on MDA-MB-435 it was 38.7 µM (inactive); with MOLT-4, 16.1 µM (inactive); in the assay with NCI/ADR-RES, 1.58 µM (inactive). In addition, the GI50 in the assay with OVCAR-4 is > 48.8 µM (inactive); in the assay on PC-3 it was 32.2 µM (inactive); with SF-539, 6.56 µM (inactive); with SK-MEL-28 it was 11.5 µM (inactive); in the assay on SK-MEL-2, > 62.1 µM (inactive); in the assay on SK-MEL-5, 26.5 µM (inactive). Besides, the GI50 in the assay with SR is 14.8 µM (inactive); in the assay on SW-620 it was > 60.5 µM (inactive).
`O=[N+]([O-])c1cc(Cl)cc2cc(Br)cnc12`: the GI50 with 786-0 was 21.4 µM (inactive); in the assay with A498, 23.6 µM (inactive); in the assay on ACHN it was > 31.6 µM (inactive); with BT-549, 28.1 µM (inactive); with COLO 205 it was > 31.6 µM (inactive); in the assay on DU-145, > 31.6 µM (inactive). Further, the GI50 in the assay on HT-29 is > 31.6 µM (inactive); with Hs-578T, 17.6 µM (inactive); in the assay with MDA-MB-231, 21.1 µM (inactive); in the assay with MDA-MB-435, > 31.6 µM (inactive); in the assay with MOLT-4, > 31.6 µM (inactive); with NCI/ADR-RES, > 31.6 µM (inactive). Further, the GI50 in the assay on OVCAR-4 is > 31.6 µM (inactive); with PC-3, > 31.6 µM (inactive); in the assay with SF-539 it was > 31.6 µM (inactive); in the assay on SK-MEL-28 it was > 31.6 µM (inactive); with SK-MEL-2 it was 39.9 µM (inactive); in the assay on SK-MEL-5, 16.7 µM (inactive). Besides, the GI50 in the assay on SR is > 31.6 µM (inactive).
Turning to `CC(C)=NOC(=O)OC[C@H]1O[C@@H](n2cnc3c(N)ncnc32)C(O)C1O` (stereo partly specified), the GI50 in the assay with 786-0 is 70 µM (inactive); in the assay with A498 it was > 100 µM (inactive); in the assay with ACHN, > 100 µM (inactive); in the assay on BT-549, > 100 µM (inactive); in the assay with COLO 205 it was > 100 µM (inactive); in the assay on DU-145, > 100 µM (inactive). For the same compound, the GI50 in the assay on HT-29 was 85.3 µM (inactive); in the assay on Hs-578T, > 100 µM (inactive); in the assay with MDA-MB-231, > 100 µM (inactive); in the assay on MDA-MB-435 it was 82.6 µM (inactive); in the assay on MOLT-4 it was > 100 µM (inactive); in the assay on NCI/ADR-RES, > 100 µM (inactive). Besides, the GI50 with OVCAR-4, in the assay with PC-3, with SF-539, in the assay with SK-MEL-28, in the assay on SK-MEL-2 and in the assay with SK-MEL-5 was > 100 µM (inactive) in each case. The GI50 in the assay with SR is > 100 µM (inactive); in the assay with SW-620, 89.3 µM (inactive).
Regarding `C[C@H](OC(=O)/C=C/c1ccc(O)c(O)c1)[C@H](C)OC(=O)/C=C/c1ccc(O)c(O)c1`, the GI50 in the assay with 786-0 was 4.73 µM (inactive); with A498, 17.1 µM (inactive); in the assay on ACHN, 6.11 µM (inactive); in the assay on BT-549, 10.4 µM (inactive); in the assay on COLO 205 it was 20.3 µM (inactive); in the assay with DU-145 it was 11.6 µM (inactive). Moreover, the GI50 is 12.2 µM (inactive) in the assay with HT-29; 6.65 µM (inactive) in the assay with Hs-578T; 10.9 µM (inactive) in the assay with MDA-MB-231; 4.84 µM (inactive) in the assay on MDA-MB-435; 2.49 µM (inactive) in the assay with MOLT-4; 12.2 µM (inactive) in the assay with NCI/ADR-RES. The GI50 in the assay on OVCAR-4 was 5.09 µM (inactive); with PC-3, 13.1 µM (inactive); with SF-539, 9.48 µM (inactive); in the assay with SK-MEL-28 it was 11.5 µM (inactive); with SK-MEL-2, 10.4 µM (inactive); with SK-MEL-5, 6.12 µM (inactive). The GI50 with SR was 8.18 µM (inactive); in the assay with SW-620, 3.93 µM (inactive).

The record behind these values is ChEMBL document CHEMBL1201862, “PubChem BioAssay data set” (2004).
